PMC8359193, “Summary of reference chemicals evaluated by the fish short‐term reproduction assay, OECD TG229, using Japanese Medaka, Oryzias latipes” (Journal of Applied Toxicology, 2021)

Columns and labels:
[1] = system: Japanese medaka (Oryzias latipes); assay: Fish short-term reproduction assay (FSTRA, OECD TG229), 21-day flow-through exposure; conditions: for Fertility rate (%) / Mortality (%) Female / Mortality (%) Male / Number of fertilized eggs / Number of total eggs / SSC Female / SSC Male / VTG (ng/mg of liver) Female / VTG (ng/mg of liver) Male: 21 days; for GSI Female / GSI Male / HSI Female / HSI Male / Length Female / Length Male / Weight Female / Weight Male: at completion of exposure
Procedure: The experimental studies on the FSTRA for the 16 chemicals were conducted in two laboratories in Japan, the National Institute for Environmental Studies (NIES, Lab‐1) and the Institute of Environmental Ecology, IDEA Consultants Inc. (Lab‐2), in accordance with OECD TG229 (OECD, [2012a]) (Table 1).
The NIES‐R strain of Japanese medaka (O. latipes), one of the orange‐red varieties, was used in all the 16 chemical studies. For the studies, healthy and mature male and female medakas at 16 ± 2 weeks old were selected from a single‐stock population, which were bred within the test facilities. The test fish were maintained in conditions similar to the assay for at least 7 days, and spawning status was checked during the acclimation period. On the day the chemical exposure commenced, to ensure balanced distribution of test fish between the treatment groups for the reproductive status of the fish, the replicate vessels (fish tanks), with each containing three male and female medaka, were distributed to each treatment and control group, for example, by a randomized block design based on the number of fertilized eggs laid in the last 5–7 days during the acclimation, in each assay.
The water solubility of the test chemical was also taken into consideration when deciding the highest test concentration. To set the lower concentrations, a spacing factor ranging between two and five was used. All assays included a dilution water control (DWC).
Test solutions at the selected concentrations were prepared by diluting a stock solution, which was prepared by an adequate method depending on the physicochemical properties of the test chemicals, for example, by simply mixing the test chemical in dilution water by stirring and/or sonicating for an appropriate time or by using a solid–liquid saturator. In the two laboratories, flow‐through exposure systems, in which a series of test solutions at the target concentrations can be continuously prepared and delivered to test vessels at controlled flow rates (Haselman et al., [2016]; Watanabe et al., [2017]), were used for the exposure experiments.
In the FSTRA, three mature adult males and females in a test vessel were exposed together to the test chemicals in flow‐through condition for 3 weeks. In all the assays, each treatment group, including the DWC group, contained four replicate tanks. During the exposure period, the fish were fed a sufficient amount of live brine shrimp nauplii (newly hatched Artemia sp.) for daily spawning ad libitum. Fecal material in the tanks was appropriately removed by siphoning after feeding. Water temperature of test solutions was recorded for at least one vessel in each treatment and control group every day and for all vessels at least once a week. Furthermore, dissolved oxygen and pH of test solutions were measured for all test vessels at least once a week. Mortality and abnormal behavior and appearance in the fish exposed to test chemicals were daily observed, and any fish that died were removed from the tank as soon as possible. To assess the reproductive status, all eggs females spawned were collected every day. At the completion of the chemical exposure, surviving fish in each tank were sampled.
The eggs females released on the bottom of the tank were collected by siphoning, and the egg clutches still on female abdomen were carefully picked from the body of the females captured using a small net. All the eggs collected were microscopically observed and separately counted for fertilized and unfertilized.

medaka ARβ (mARβ) = medaka ARβ (mARβ) (Oryzias latipes, UniProt D1MV73); assay: Medaka ARβ reporter gene assay (RGA), antagonist assay with 50 nM 11KT, HepG2 cells; assay type: cell-based, Japanese medaka (Oryzias latipes); conditions: 50 nM 11KT-induced mARβ activity
Procedure: To support interpretation of the biological effects observed in the FSTRA studies, in vitro RGAs using medaka Esr1 (mEsr1) and medaka ARβ (mARβ) were performed for the 16 test chemicals. In the present study, Esr1 and ARβ, which are ancestral subtypes among Esrs and ARs in Japanese medaka, were selected based on the phylogenetical analyses of Esr and AR with each receptor RGAs (Ogino et al., [2016], [2018]; Tohyama et al., [2015]).
The mARβ RGA in which the agonist and the antagonist assays were performed as same as the mEsr1 RGA was carried out according to the methods previously reported by Lange et al. ([2015]). For the assays, human liver cancer cell line, HepG2, was used as the host cells, and mARβ/pcDNA3.1, MMTV‐Luc, and pRL‐TK‐Rlu were used as mARβ expression vector, reporter vector, and internal control vector, respectively. Other materials and methods, for example, operating procedure, reagents, and incubation conditions, were almost the same as the mEsr1 RGA previously described beside that 11KT (Sigma‐Aldrich, purity 99.0%), a main AR ligand in fish, was competitively spiked at 50 nM into the test medium with test chemicals in antagonist assay. In the agonist and the antagonist assays, 11KT and 2‐hydroxyflutamide (2HFLT; Sigma‐Aldrich, purity 98.5%) were used as positive controls, respectively.
Effect concentrations, that is, EC50 (a half maximal effective concentration) in the agonist assay and IC50 (a half maximal inhibitory concentration) in the antagonist assay, were estimated by nonlinear curve fitting (e.g., three parameters logistic regression curve) using GraphPad Prism (GraphPad Software Inc., La Jolla, CA, USA).

fathead minnow = system: fathead minnow; set-up: method as in Panter et al. (2004); conditions: 21-day exposure; ref Panter et al. (2004); cited from earlier work

Chain of medaka ARβ (mARβ) (D1MV73 entry or part of it): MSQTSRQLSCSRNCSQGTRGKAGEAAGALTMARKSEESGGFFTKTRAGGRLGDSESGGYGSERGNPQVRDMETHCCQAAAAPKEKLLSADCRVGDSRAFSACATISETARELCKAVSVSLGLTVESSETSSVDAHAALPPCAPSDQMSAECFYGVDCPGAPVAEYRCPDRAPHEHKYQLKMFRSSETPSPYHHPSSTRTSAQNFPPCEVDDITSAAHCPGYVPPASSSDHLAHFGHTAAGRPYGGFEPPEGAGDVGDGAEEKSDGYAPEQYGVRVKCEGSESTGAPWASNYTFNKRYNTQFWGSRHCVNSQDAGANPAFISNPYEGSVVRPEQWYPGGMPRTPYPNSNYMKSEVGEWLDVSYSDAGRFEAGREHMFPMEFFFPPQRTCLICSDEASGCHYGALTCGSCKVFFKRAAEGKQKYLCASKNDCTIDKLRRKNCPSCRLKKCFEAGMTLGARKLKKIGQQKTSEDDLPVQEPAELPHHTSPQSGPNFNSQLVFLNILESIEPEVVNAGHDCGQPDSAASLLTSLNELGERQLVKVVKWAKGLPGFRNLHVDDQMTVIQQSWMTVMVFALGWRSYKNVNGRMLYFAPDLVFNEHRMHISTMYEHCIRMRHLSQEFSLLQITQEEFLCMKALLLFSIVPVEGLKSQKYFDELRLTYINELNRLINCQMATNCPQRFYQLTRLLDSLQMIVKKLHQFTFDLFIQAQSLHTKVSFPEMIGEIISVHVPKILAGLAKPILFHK

Q: Which “Fertility rate (%)” value ([1]; measured conc. 119 μg/L) does the source give for `CC(C)C(=O)Nc1ccc([N+](=O)[O-])c(C(F)(F)F)c1` [FLT, Flutamide] here?
A: The value was 94%.

Q: What about the “Mortality (%) Female” value ([1]; measured conc. 119 μg/L) of the same molecule?
A: The value was 0%.

Q: What about the “Mortality (%) Male” value ([1]; measured conc. 119 μg/L) of the same molecule?
A: The value was 0%.

Q: What about the “Number of fertilized eggs” value ([1]; measured conc. 119 μg/L) of the same molecule?
A: Its value is 25.

Q: And the “Number of total eggs” value ([1]; measured conc. 119 μg/L)?
A: Its value is 26 ± 2.3 /female/day.

Q: And the “SSC Female” value ([1]; measured conc. 119 μg/L)?
A: The value was 0 ± 0.

Q: And the “SSC Male” value ([1]; measured conc. 119 μg/L)?
A: Its value is 86 ± 18.

Q: What about the “VTG (ng/mg of liver) Female” value ([1]; measured conc. 119 μg/L) of the same molecule?
A: Its value is 908 ± 255 ng/mg of liver.

Q: And the “VTG (ng/mg of liver) Male” value ([1]; measured conc. 119 μg/L)?
A: The value was 47.9 ± 41.8 ng/mg of liver.

Q: What about the “GSI Female” value ([1]; measured conc. 119 μg/L) of the same molecule?
A: Its value is 10.1%.

Q: And the “GSI Male” value ([1]; measured conc. 119 μg/L)?
A: The value was 1.10%.

Q: What about the “HSI Female” value ([1]; measured conc. 119 μg/L) of the same molecule?
A: Its value is 4.2%.

Q: And the “HSI Male” value ([1]; measured conc. 119 μg/L)?
A: The value was 2.0%.

Q: What about the “Length Female” value ([1]; measured conc. 119 μg/L) of the same molecule?
A: The value was 34.2 mm.

Q: What about the “Length Male” value ([1]; measured conc. 119 μg/L) of the same molecule?
A: Its value is 35.6 mm.

Q: And the “Weight Female” value ([1]; measured conc. 119 μg/L)?
A: The value was 426 mg.

Q: And the “Weight Male” value ([1]; measured conc. 119 μg/L)?
A: The value was 445 mg.

Q: What about the “Fertility rate (%)” value ([1]; measured conc. 248 μg/L) of the same molecule?
A: The value was 94%.

Q: What about the “Mortality (%) Female” value ([1]; measured conc. 248 μg/L) of the same molecule?
A: The value was 0%.

Q: What about the “Mortality (%) Male” value ([1]; measured conc. 248 μg/L) of the same molecule?
A: Its value is 0%.

Q: What about the “Number of fertilized eggs” value ([1]; measured conc. 248 μg/L) of the same molecule?
A: Its value is 26.

Q: What about the “Number of total eggs” value ([1]; measured conc. 248 μg/L) of the same molecule?
A: The value was 28 ± 3.1 /female/day.

Q: What about the “SSC Female” value ([1]; measured conc. 248 μg/L) of the same molecule?
A: Its value is 0 ± 0.

Q: And the “SSC Male” value ([1]; measured conc. 248 μg/L)?
A: Its value is 82 ± 15.

Q: What about the “VTG (ng/mg of liver) Female” value ([1]; measured conc. 248 μg/L) of the same molecule?
A: Its value is 970 ± 200 ng/mg of liver.

Q: What about the “VTG (ng/mg of liver) Male” value ([1]; measured conc. 248 μg/L) of the same molecule?
A: Its value is 35.8 ± 41.5 ng/mg of liver.

Q: What about the “GSI Female” value ([1]; measured conc. 248 μg/L) of the same molecule?
A: The value was 10.9%.

Q: And the “GSI Male” value ([1]; measured conc. 248 μg/L)?
A: The value was 1.10%.

Q: What about the “HSI Female” value ([1]; measured conc. 248 μg/L) of the same molecule?
A: Its value is 4.6%.

Q: What about the “HSI Male” value ([1]; measured conc. 248 μg/L) of the same molecule?
A: Its value is 2.1%.

Q: What about the “Length Female” value ([1]; measured conc. 248 μg/L) of the same molecule?
A: Its value is 33.7 mm.

Q: What about the “Length Male” value ([1]; measured conc. 248 μg/L) of the same molecule?
A: The value was 35.0 mm.

Q: And the “Weight Female” value ([1]; measured conc. 248 μg/L)?
A: Its value is 428 mg.

Q: And the “Weight Male” value ([1]; measured conc. 248 μg/L)?
A: The value was 394 mg.

Q: And the “Fertility rate (%)” value ([1]; measured conc. 497 μg/L)?
A: The value was 96%.

Q: And the “Mortality (%) Female” value ([1]; measured conc. 497 μg/L)?
A: Its value is 0%.

Q: What about the “Mortality (%) Male” value ([1]; measured conc. 497 μg/L) of the same molecule?
A: The value was 0%.

Q: What about the “Number of fertilized eggs” value ([1]; measured conc. 497 μg/L) of the same molecule?
A: The value was 27.

Q: And the “Number of total eggs” value ([1]; measured conc. 497 μg/L)?
A: The value was 28 ± 3.0 /female/day.

Q: And the “SSC Female” value ([1]; measured conc. 497 μg/L)?
A: Its value is 0 ± 0.

Q: What about the “SSC Male” value ([1]; measured conc. 497 μg/L) of the same molecule?
A: Its value is 82 ± 16.

Q: And the “VTG (ng/mg of liver) Female” value ([1]; measured conc. 497 μg/L)?
A: Its value is 812 ± 159 ng/mg of liver.

Q: And the “VTG (ng/mg of liver) Male” value ([1]; measured conc. 497 μg/L)?
A: The value was 38.7 ± 44.8 ng/mg of liver.

Q: What about the “GSI Female” value ([1]; measured conc. 497 μg/L) of the same molecule?
A: The value was 10.3%.

Q: And the “GSI Male” value ([1]; measured conc. 497 μg/L)?
A: The value was 1.20%.

Q: What about the “HSI Female” value ([1]; measured conc. 497 μg/L) of the same molecule?
A: Its value is 4.8%.

Q: What about the “HSI Male” value ([1]; measured conc. 497 μg/L) of the same molecule?
A: Its value is 1.9%.

Q: And the “Length Female” value ([1]; measured conc. 497 μg/L)?
A: Its value is 34.3 mm.

Q: What about the “Length Male” value ([1]; measured conc. 497 μg/L) of the same molecule?
A: Its value is 35.9 mm.

Q: And the “Weight Female” value ([1]; measured conc. 497 μg/L)?
A: The value was 470 mg.

Q: What about the “Weight Male” value ([1]; measured conc. 497 μg/L) of the same molecule?
A: The value was 429 mg.

Q: And the “Fertility rate (%)” value ([1]; measured conc. 925 μg/L)?
A: Its value is 93%.

Q: And the “Mortality (%) Female” value ([1]; measured conc. 925 μg/L)?
A: The value was 0%.

Q: What about the “Mortality (%) Male” value ([1]; measured conc. 925 μg/L) of the same molecule?
A: The value was 0%.

Q: What about the “Number of fertilized eggs” value ([1]; measured conc. 925 μg/L) of the same molecule?
A: The value was 27.

Q: What about the “Number of total eggs” value ([1]; measured conc. 925 μg/L) of the same molecule?
A: Its value is 29 ± 3.1 /female/day.

Q: And the “SSC Female” value ([1]; measured conc. 925 μg/L)?
A: The value was 0 ± 0.

Q: What about the “SSC Male” value ([1]; measured conc. 925 μg/L) of the same molecule?
A: The value was 93 ± 16.

Q: What about the “VTG (ng/mg of liver) Female” value ([1]; measured conc. 925 μg/L) of the same molecule?
A: The value was 830 ± 131 ng/mg of liver.

Q: What about the “VTG (ng/mg of liver) Male” value ([1]; measured conc. 925 μg/L) of the same molecule?
A: Its value is 50.8 ± 53.8 ng/mg of liver.

Q: And the “GSI Female” value ([1]; measured conc. 925 μg/L)?
A: Its value is 11.5%.

Q: What about the “GSI Male” value ([1]; measured conc. 925 μg/L) of the same molecule?
A: Its value is 1.10%.

Q: And the “HSI Female” value ([1]; measured conc. 925 μg/L)?
A: Its value is 4.5%.

Q: And the “HSI Male” value ([1]; measured conc. 925 μg/L)?
A: The value was 2.0%.

Q: What about the “Length Female” value ([1]; measured conc. 925 μg/L) of the same molecule?
A: Its value is 34.2 mm.

Q: What about the “Length Male” value ([1]; measured conc. 925 μg/L) of the same molecule?
A: Its value is 35.8 mm.

Q: And the “Weight Female” value ([1]; measured conc. 925 μg/L)?
A: The value was 453 mg.

Q: What about the “Weight Male” value ([1]; measured conc. 925 μg/L) of the same molecule?
A: The value was 416 mg.

Q: What about the “effect on fecundity (number of total eggs), in words” value ([1]; within the test concentrations, 21-day exposure) of the same molecule?
A: Its value is “No effect”.

Q: What about the “mARβ antagonist activity (in words)” value (medaka ARβ (mARβ)) of the same molecule?
A: Its value is “inhibited”.

Q: And the “concentration that significantly reduced the number of nuptial tubercles in males” value (fathead minnow)?
A: Its value is 938.6 µg/L.
